{"source": "the NIST ThermoML archive (doi:10.1016/j.fluid.2016.02.037)", "test": "Molar enthalpy of transition or fusion", "details": "Crystal; DSC", "note": "Several values for one entry are separate records, joined by “and”; a condition that tells them apart may be missing. Equal entries are not always repeated."}
{"smiles": "Cn1nnnc1SCC1=C(C(=O)[O-])N2C(=O)[C@@H](NC(=O)[C@H](OC=O)c3ccccc3)[C@H]2SC1.[Na+]", "note": "[cefamandole nafate]", "values": [{"measurement": "Molar enthalpy of transition or fusion", "value": "4.51 kcal/mol and 3.33 kcal/mol"}]}
